The source of these data is patent US20070202188A1, “Use of alkene carboxlic acid n alkylamides as flavouring agents” (priority 2003, published 2007).

One data set concerns group of 6-8 testers. Kind of data set: Sensorial evaluation (tasting of sugar solution by a group of testers). In kind it is in vivo. To be noted: approx. 5 ml swallowed. On the procedure: The substance to be tasted (see below) was dissolved in ethanol and the ethanolic solution was then diluted with 11% strength sugar solution (final concentration: c). For tasting, in each case approx. 5 ml of the sugar solution was swallowed. If the threshold value of the substance was known, a value just above the threshold value was chosen for the tasting. A group of 6-8 testers tasted the solutions.

For data set [1] the following is noted: cited from earlier work.
The next data set concerns mouse. To be noted: mouse oral; cited from earlier work.
The test system of a further data set is oral cavity. To be noted: in vivo; cited from earlier work.
The subject of another data set is mouth. To be noted: in vivo; cited from earlier work.
[2] abbreviates: c=10 ppm in 11% strength sugar solution.

For the molecule “3E-nonenoic acid N-isobutylamide [Example 3]”, the sensorial profile entry with group of 6-8 testers (setting [2]) is recorded as “anaesthetizing, piquant taste builds up, impression of sweet palmond, slightly bitter”.
For `COc1cc(CNC(=O)CCCCCCC(C)C)ccc1O` [dihydrocapsaicin], in the data set with group of 6-8 testers (c=100 ppb in 11% strength sugar solution), the sensorial profile entry is given as “action starts with a slight delay in the pharyngeal cavity, aggressive, burning piquant taste (chilli, slight evolution of heat)”.
For the molecule “2E-decenoic acid N-(2-methylbutyl)amide [Example 2]”, in the data set on group of 6-8 testers (setting [2]), the sensorial profile entry is reported as “slightly piquant, saliva-promoting, tingling, mild heat sensation”.
The same measure, in the same setting: in the case of `CCCCCC/C=C/CC(=O)NCC(C)C` [Example 4, 3E-decenoic acid N-isobutylamide] it was “tickling piquant taste, builds up slowly in the pharynx, slightly bitter”.
As for `COc1cc(CNC(=O)CCCC/C=C/C(C)C)ccc1O` [capsaicin, N-(4-hydroxy-3-methoxybenzyl)-8-methyl-(6E)-nonenoic acid amid], the “damage with frequent use and overdose” value in data set [1] is “chronic gastritis and kidney and liver damage”. Also, in the data set with mouse, the LD50 is 47 mg.
Regarding 2E-tetradecenoic acid N-isobutylamide, the “sensorial effect described in the literature” value with oral cavity is listed as “no piquant taste was found”.
Consider `CCCCC/C=C/C=C/C(=O)NCC(C)C` [2E,4E-decadienoic acid N-isobutylamide], for which, in the data set on group of 6-8 testers (setting [2]), the sensorial profile result is “saliva-promoting, fatty, fruity, slightly tingling, slightly piquant”. Moreover, in the data set on oral cavity, the “sensorial effect described in the literature” value is on record as “chiefly shows an anaesthetizing effect”.
Turning to `O=C(/C=C/C=C/c1ccc2c(c1)OCO2)N1CCCCC1` [piperine, 1-piperoylpiperidine], in the data set on mouth, the intrinsic taste result was “intensive intrinsic taste reminiscent of pepper” and the “relative piquant taste compared with capsaicin” value is recorded as “approx. 1%”.
